Laboratory results from patent publication US10781181B2, “N-((het) arylmethyl)-heteroaryl-carboxamides compounds as plasma kallikrein inhibitors” (Kalvista Pharmaceuticals Limited, priority 2014, dated 2020).

Columns and labels:
Assay type in all cases: biochemical
Human FXIa = Human FXIa (Homo sapiens (Human), UniProt P03951); assay: Determination of the % inhibition for FXIa; conditions: 40 μM of the test compound, human FXIa, 25° C.; read-out: % Inhibition @ 40 μM (human FXIa)
Method: Determination of the % Inhibition for FXIa
Human FXIa (Enzyme Research Laboratories) was incubated at 25° C. with the fluorogenic substrate Z-Gly-Pro-Arg-AFC and 40 μM of the test compound. Residual enzyme activity (initial rate of reaction) was determined by measuring the change in […].

Human plasma kallikrein = Human plasma kallikrein (Homo sapiens (Human), UniProt P03952); assay: Determination of the IC50 for plasma kallikrein; conditions: read-out: IC50 (human PKal)
Method: Determination of the IC50 for Plasma Kallikrein
(§1) Human plasma kallikrein (Protogen) was incubated at 25° C. with the fluorogenic substrate H-DPro-Phe-Arg-AFC and various concentrations of the test compound. Residual enzyme activity (initial rate of reaction) was determined by measuring the change in […] at 410 nm and the IC50 value for the test compound was determined.

Human KLK1 = Human KLK1 (Homo sapiens (Human), UniProt P06870); assay: Determination of the IC50 for KLK1; conditions: human KLK1, 25° C., substrate H-DVal-Leu-Arg-AFC
Method: Determination of the IC50 for KLK1
as §1, with “KLK1 (Callbiochem)” for “plasma kallikrein (Protogen)”, “H-DVal-Leu-Arg-AFC” for “H-DPro-Phe-Arg-AFC”

Human plasma kallikrein, sequence (P03952 391-638): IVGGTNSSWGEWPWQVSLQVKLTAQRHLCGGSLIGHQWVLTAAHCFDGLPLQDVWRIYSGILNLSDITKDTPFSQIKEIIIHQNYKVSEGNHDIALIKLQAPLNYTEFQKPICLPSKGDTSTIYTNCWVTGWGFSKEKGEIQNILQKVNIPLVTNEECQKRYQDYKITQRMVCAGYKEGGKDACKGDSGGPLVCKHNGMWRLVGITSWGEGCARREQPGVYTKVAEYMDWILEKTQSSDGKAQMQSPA
Human plasma kallikrein, sequence (P03952 20-390 partner): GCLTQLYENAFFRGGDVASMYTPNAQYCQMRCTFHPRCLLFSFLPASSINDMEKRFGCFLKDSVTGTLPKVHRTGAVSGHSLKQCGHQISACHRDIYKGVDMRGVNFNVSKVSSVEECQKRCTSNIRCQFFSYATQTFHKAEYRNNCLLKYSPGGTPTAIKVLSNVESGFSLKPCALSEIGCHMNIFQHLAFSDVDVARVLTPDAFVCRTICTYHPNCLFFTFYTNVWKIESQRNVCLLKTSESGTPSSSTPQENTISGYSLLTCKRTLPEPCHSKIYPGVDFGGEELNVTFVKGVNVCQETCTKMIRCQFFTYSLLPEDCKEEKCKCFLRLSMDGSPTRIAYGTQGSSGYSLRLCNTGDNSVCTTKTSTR
Human KLK1, sequence (P06870 25-262): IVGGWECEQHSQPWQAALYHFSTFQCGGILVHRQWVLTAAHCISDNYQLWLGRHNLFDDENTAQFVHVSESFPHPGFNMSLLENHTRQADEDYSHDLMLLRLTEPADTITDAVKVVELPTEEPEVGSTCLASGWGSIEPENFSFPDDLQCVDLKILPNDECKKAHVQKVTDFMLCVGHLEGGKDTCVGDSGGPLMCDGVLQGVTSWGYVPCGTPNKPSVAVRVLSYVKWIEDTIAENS
Human FXIa, sequence (P03951 388-625 limits assumed): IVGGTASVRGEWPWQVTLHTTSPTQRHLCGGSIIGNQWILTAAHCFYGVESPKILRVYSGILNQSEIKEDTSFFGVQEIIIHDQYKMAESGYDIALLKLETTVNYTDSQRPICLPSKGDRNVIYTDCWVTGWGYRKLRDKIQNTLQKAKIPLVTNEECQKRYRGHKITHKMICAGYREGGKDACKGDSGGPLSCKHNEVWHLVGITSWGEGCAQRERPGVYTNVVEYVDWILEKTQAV
Human FXIa, sequence (P03951 19-387 partner limits assumed): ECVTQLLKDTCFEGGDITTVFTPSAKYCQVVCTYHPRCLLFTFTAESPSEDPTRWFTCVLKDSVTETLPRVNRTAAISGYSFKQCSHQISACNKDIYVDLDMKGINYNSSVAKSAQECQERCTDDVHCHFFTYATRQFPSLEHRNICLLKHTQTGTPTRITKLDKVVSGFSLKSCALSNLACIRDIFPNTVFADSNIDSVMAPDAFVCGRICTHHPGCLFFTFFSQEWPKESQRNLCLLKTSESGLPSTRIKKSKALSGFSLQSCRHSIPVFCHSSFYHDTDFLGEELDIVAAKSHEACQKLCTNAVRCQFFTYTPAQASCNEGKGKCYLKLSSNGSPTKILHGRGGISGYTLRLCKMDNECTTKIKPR

Row | Structure (SMILES) | inhibition at 40 µM (Human FXIa) [%] | IC50 (Human plasma kallikrein) [µM] | IC50 (Human KLK1) [µM]
1 | CN(C)C(=O)N(C)Cc1ccc(Cn2cc(C(=O)NCCOc3cccc(Cl)c3)c(N)n2)cc1 [Example 83, 3-amino-N-[2-(3-chlorophenoxy)ethyl]-1-[(4-{[(dimethylcarbamoyl)(methyl)amino]methyl}phenyl)methyl]pyrazole-4-carboxamide] | 0 | 0.298 | > 40
2 | Nc1nn(Cc2ccc(C(=O)N3CCCC3)cc2)cc1C(=O)NCCOc1cccc(Cl)c1 [Example 51, 3-amino-N-[2-(3-chlorophenoxy)ethyl]-1-({4-[(pyrrolidin-1-yl)carbonyl]phenyl}methyl)pyrazole-4-carboxamide] | 51 | 0.427 | > 40
3 | Nc1nn(Cc2ccnc(N3CCCC3=O)c2)cc1C(=O)NCCOc1cccc(Cl)c1 [Example 94, 3-amino-N-[2-(3-chlorophenoxy)ethyl]-1-{[2-(2-oxopyrrolidin-1-yl)pyridin-4-yl]methyl}pyrazole-4-carboxamide] |  | 3.14 | > 40
4 | CN(C)C(=O)c1cccc(Cn2cc(C(=O)NCCOc3cccc(Cl)c3)c(N)n2)c1 [Example 65, 3-amino-N-[2-(3-chlorophenoxy)ethyl]-1-{[3-(dimethylcarbamoyl)phenyl]methyl}pyrazole-4-carboxamide] |  | > 10 | > 40
5 | Cc1nn(Cc2ccc(Cn3ccccc3=O)cc2)c(C)c1C(=O)NCCOc1cccc(Cl)c1 [Example 103, N-[2-(3-chlorophenoxy)ethyl]-3,5-dimethyl-1-({4-[(2-oxopyridin-1-yl)methyl]phenyl}methyl)pyrazole-4-carboxamide] |  | > 10 | > 40
6 | Nc1nn(Cc2ccc(Cn3ccccc3=O)cc2F)cc1C(=O)NCCOc1cccc(Cl)c1 [Example 101, 3-amino-N-[2-(3-chlorophenoxy)ethyl]-1-({2-fluoro-4-[(2-oxopyridin-1-yl)methyl]phenyl}methyl)pyrazole-4-carboxamide] |  | 0.0076 | > 40
7 | COc1cc(Cn2cc(C(=O)NCCOc3cccc(Cl)c3)c(N)n2)ccc1Cn1ccccc1=O [Example 98, 3-amino-N-[2-(3-chlorophenoxy)ethyl]-1-({3-methoxy-4-[(2-oxopyridin-1-yl)methyl]phenyl}methyl)pyrazole-4-carboxamide] |  | 0.0094 | > 40
8 | COCc1nn(Cc2ccc(Cn3ccccc3=O)cc2)cc1C(=O)NCCOc1cc(Cl)cnn1 [Example 46, N-{2-[(5-chloropyridazin-3-yl)oxy]ethyl}-3-(methoxymethyl)-1-({4-[(2-oxopyridin-1-yl)methyl]phenyl}methyl)pyrazole-4-carboxamide] |  | > 10 | > 10
9 | Nc1nn(Cc2ccc(Cn3ccccc3=O)cn2)cc1C(=O)NCCOc1cccc(Cl)c1 [Example 102, 3-amino-N-[2-(3-chlorophenoxy)ethyl]-1-({5-[(2-oxopyridin-1-yl)methyl]pyridin-2-yl}methyl)pyrazole-4-carboxamide] |  | 0.0721 | > 40
10 | N#Cc1nn(Cc2ccc(Cn3ccccc3=O)cc2)cc1C(=O)NCCOc1cccc(Cl)c1 [Example 38, N-[2-(3-chlorophenoxy)ethyl]-3-cyano-1-({4-[(2-oxopyridin-1-yl)methyl]phenyl}methyl)pyrazole-4-carboxamide] |  | 0.0065 | > 40
11 | CN(CC(=O)O)c1cc(Cn2cc(C(=O)NCCOc3cccc(Cl)c3)c(N)n2)ccn1 [Example 67, ({4-[(3-amino-4-{[2-(3-chlorophenoxy)ethyl]carbamoyl}pyrazol-1-yl)methyl]pyridin-2-yl}(methyl)amino)acetic acid] |  | > 10 | > 40
12 | Nc1nn(Cc2ccc(Cn3c(F)cccc3=O)cc2)cc1C(=O)NCCOc1cccc(Cl)c1 [Example 99, 3-amino-N-[2-(3-chlorophenoxy)ethyl]-1-({4-[(2-fluoro-6-oxopyridin-1-yl)methyl]phenyl}methyl)pyrazole-4-carboxamide] |  | 2.07 | > 40
13 | COCc1nn(Cc2ccc(Cn3ccccc3=O)cc2)cc1C(=O)NCCOc1cc(Cl)cc(OC)c1 [Example 11, N-[2-(3-chloro-5-methoxyphenoxy)ethyl]-3-(methoxymethyl)-1-({4-[(2-oxopyridin-1-yl)methyl]phenyl}methyl)pyrazole-4-carboxamide] |  | > 10 | > 10
14 | Nc1nn(Cc2ccc(Cn3ccccc3=O)cc2)cc1C(=O)NCC(=O)Nc1ccc(Cl)cc1 [Example 4, 2-{[3-amino-1-({4-[(2-oxopyridin-1-yl)methyl]phenyl}methyl)pyrazol-4-yl]formamido}-N-(4-chlorophenyl)acetamide] |  | > 10 | > 10
15 | CNC(=O)c1cccc(Cn2cc(C(=O)NCCOc3cccc(Cl)c3)c(N)n2)c1 [Example 64, 3-amino-N-[2-(3-chlorophenoxy)ethyl]-1-{[3-(methylcarbamoyl)phenyl]methyl}pyrazole-4-carboxamide] |  | > 10 | > 40
16 | CN(C)C(=O)c1ccc(Cn2cc(C(=O)NCCOc3cccc(Cl)c3)c(N)n2)cc1 [Example 59, 3-amino-N-[2-(3-chlorophenoxy)ethyl]-1-{[4-(dimethylcarbamoyl)phenyl]methyl}pyrazole-4-carboxamide] |  | > 10 | > 40
17 | Nc1c(C(=O)NCCOc2cccc(Cl)c2)cnn1Cc1ccc2[nH]ncc2c1 [Example 44, 5-amino-N-[2-(3-chlorophenoxy)ethyl]-1-(1H-indazol-5-ylmethyl)pyrazole-4-carboxamide] |  | > 10 | > 40
18 | Nc1nn(Cc2cccc(Cl)n2)cc1C(=O)NCCOc1cccc(Cl)c1 [Example 81, 3-amino-N-[2-(3-chlorophenoxy)ethyl]-1-[(6-chloropyridin-2-yl)methyl]pyrazole-4-carboxamide] |  | > 10 | > 40
19 | Cc1nn(Cc2ccc(Cn3ccccc3=O)cc2)cc1C(=O)NCCOc1cccc(Cl)c1 [Example 39, N-[2-(3-chlorophenoxy)ethyl]-3-methyl-1-({4-[(2-oxopyridin-1-yl)methyl]phenyl}methyl)pyrazole-4-carboxamide] |  | 0.0163 | > 40
20 | Cc1nc(C(=O)NCCOc2cccc(Cl)c2)cn1Cc1ccc(Cn2ccccc2=O)cc1 [Example 43, N-[2-(3-chlorophenoxy)ethyl]-2-methyl-1-({4-[(2-oxopyridin-1-yl)methyl]phenyl}methyl)imidazole-4-carboxamide] |  | 0.077 | > 10
21 | Nc1nn(Cc2ccc(Cn3cc(F)ccc3=O)cc2)cc1C(=O)NCCOc1cccc(Cl)c1 [Example 100, 3-amino-N-[2-(3-chlorophenoxy)ethyl]-1-({4-[(5-fluoro-2-oxopyridin-1-yl)methyl]phenyl}methyl)pyrazole-4-carboxamide] |  | 0.0062 | > 40
22 | Cc1nc2cc(Cn3cc(C(=O)NCCOc4cccc(Cl)c4)c(N)n3)ccc2n1C [Example 95, 3-amino-N-[2-(3-chlorophenoxy)ethyl]-1-[(1,2-dimethyl-1,3-benzodiazol-5-yl)methyl]pyrazole-4-carboxamide] |  | 1.9 | > 40
23 | Nc1nn(Cc2ccc(N3CCCC3=O)nc2)cc1C(=O)NCCOc1cccc(Cl)c1 [Example 96, 3-amino-N-[2-(3-chlorophenoxy)ethyl]-1-{[6-(2-oxopyrrolidin-1-yl)pyridin-3-yl]methyl}pyrazole-4-carboxamide] |  | 2.23 | > 40
24 | CC(CNC(=O)c1cn(Cc2ccc(Cn3ccccc3=O)cc2)nc1N)Oc1cccc(Cl)c1 (racemic) [Example 118, 3-amino-N-[(2R/S)-2-(3-chlorophenoxy)propyl]-1-({4-[(2-oxopyridin-1-yl)methyl]phenyl}methyl)pyrazole-4-carboxamide] |  | 0.0133 | > 40
25 | Nc1c(C(=O)NCCOc2cccc(Cl)c2)cnn1Cc1ccc(C(=O)N2CCCC2)cc1 [Example 45, 5-amino-N-[2-(3-chlorophenoxy)ethyl]-1-({4-[(pyrrolidin-1-yl)carbonyl]phenyl}methyl)pyrazole-4-carboxamide] |  | 6.25 | > 40
26 | Nc1nn(Cc2ccc(C(=O)N3CCCCC3)cc2)cc1C(=O)NCCOc1cccc(Cl)c1 [Example 60, 3-amino-N-[2-(3-chlorophenoxy)ethyl]-1-({4-[(piperidin-1-yl)carbonyl]phenyl}methyl)pyrazole-4-carboxamide] |  | > 10 | > 40
27 | COCc1nn(Cc2ccc(Cn3ccc(C)cc3=O)cc2)cc1C(=O)NCCOc1cccc(Cl)c1 [Example 104, N-[2-(3-chlorophenoxy)ethyl]-3-(methoxymethyl)-1-({4-[(4-methyl-2-oxopyridin-1-yl)methyl]phenyl}methyl)pyrazole-4-carboxamide] |  | 0.413 | > 40
28 | Nc1nn(Cc2cccc(C(=O)O)c2)cc1C(=O)NCCOc1cccc(Cl)c1 [Example 63, 3-[(3-amino-4-{[2-(3-chlorophenoxy)ethyl]carbamoyl}pyrazol-1-yl)methyl]benzoic acid] |  | > 10 | > 40
29 | Nc1nn(Cc2ccc(-c3cccnc3)nc2)cc1C(=O)NCCOc1cccc(Cl)c1 [Example 97, 3-amino-N-[2-(3-chlorophenoxy)ethyl]-1-{[6-(pyridin-3-yl)pyridin-3-yl]methyl}pyrazole-4-carboxamide] |  | 1.13 | > 40
